Results on three compounds are retold here after US9428448B2, “Compounds and methods of treating obesity” (Yissum Research Development Company of the Hebrew …, priority 2008, dated 2016).

Series [1] can be described thus: body weight of mice during treatment. It is filed as in vivo, Sabra mice. Conditions: for effect on weight vs control (comparison study): 1 mg/kg i.p. days 8-12, female Sabra mice (FIG. 8, Example 3). The protocol: (§1) Young female Sabra mice were assigned at random to different groups (untreated controls or treated with 1 mg/kg Compound X Intra Peritoneally) of 10 mice per cage. The weights of the animals were similar at the beginning of the experiment. All cages contained wood-chip bedding and were placed in a temperature-controlled room at 22° C., on a 12-h light/dark cycle (lights on at 07.00 h). The mice had free access to water 24 h a day. The mice were fed ad-libitum, body weight was measured twice a week during the experiment and food consumption was calculated.
Compound X may also be given orally. Compound X (gavage) or saline (control) were administered to Sabra mice by oral gavage.
(§2) This study compared the effects of Compound X and Rimonabant. Female Sabra mice (32 g average weight) were divided randomly to 3 experimental groups: (a) control; (b) Compound X; and (3) Rimonabant, 10 mice in each group. Food consumption and weight were evaluated during the experiment. During the second week, mice were evaluated for cognitive function during 5 days using the eight arm maze. 15 min before evaluation mice were injected i.p. with either saline or 1 mg/kg Compound X or Rimonabant (days 8-12).

Series [2] is described as follows: total food consumption in mice. Conditions: 1 mg/kg i.p.; for effect on total food consumption in the second week (comparison study): second week during administration, vs control (FIG. 9B, Example 3). Type of series: in vivo, Sabra mice. The protocol: as §1
Total food consumption was evaluated in the first week before treatment and at the second week during the treatment (FIGS. 2A and 2B).
as §2
Total food consumption was evaluated in the first week before treatment and at the second week during the treatment (FIGS. 9A and 9B, respectively).

The nature of series [3]: cognitive function evaluated by an 8 arm maze. The following applies: for effect on cognitive function (8 arm maze; comparison study): 1 mg/kg, second week of treatment (FIG. 12, Example 3). It is filed as in vivo, Sabra mice. The protocol:
Mice were subjected to the treatment regimen outlined in Example 1, and during the second week of treatment their cognitive function was evaluated by an 8 arm maze on the second week of the experiment 15 minutes after injection. Two hours before the test, the mice were on a water deprivation schedule. At the end of each arm there was a drop of water as a reward. Each mouse was evaluated for its performance in the maze. The mice were observed until they made entries to all eight arms or until they completed 24 entries (whichever came first). The results, depicted in FIG. 3, were calculated as AUC (area under the curve) as follows: day2+day3+day4+day5−4(day1).
as §2
Mice were subjected to treatment with Compound X (1 mg/kg) or Rimonabant (1 mg/kg), and during the second week of treatment their cognitive function was evaluated by an 8 arm maze as described above in Example 2.

Series [4] in a line: locomotor activity in an open field (activity index). The following applies: 1 mg/kg i.p.; for effect on activity (mean number of crossings per minute; comparison study): open field (FIG. 10, Example 3). It is filed as in vivo, Sabra mice. The protocol: Activity of the mice was assessed in an open field (20×30 cm) divided into 12 squares of equal size. Two mice were observed simultaneously for 5 minutes. The activity test was performed on day 11 of the experiment. Locomotor activity was recorded by counting the number of crossings by the mice at one minute intervals. The results, depicted in FIG. 4, are presented as the mean number of crossings per minute.
Activity of the mice was assessed in an open field (20×30 cm) divided into 12 squares of equal size, as detailed in Example 2. The results, depicted in FIG. 10, are presented as the mean number of crossings per minute.

Series [5] relates to 2-AG levels in the hypothalamus. The series is described as follows: 2-AG levels in the hypothalamus (TLC followed by GC-MS). The following applies: treated group vs. control, 1 mg/kg i.p., p<0.05 (FIG. 5). It is filed as in vivo, mice. The protocol:
(§3) Mice were decapitated and their brains rapidly removed, and the hypothalamus and hippocampus were dissected. 2-AG levels in the hypothalamus were evaluated using TLC followed by GC-MS analysis.

The test system of series [6] is Serotonin (5-HT) levels in the hypothalamus. The series is described as follows: serotonin (5-HT) levels in the hypothalamus (HPLC-ECD). It is filed as in vivo, mice. Conditions: treated group vs. control, 1 mg/kg i.p., p<0.05 (FIG. 6). The protocol: as §3
(§4) Serotonin (5-HT) and norepinephrine (NE) were valuated in the hypothalamus (serotonin and norepinephrine) and hippocampus (norepinephrine), using HPLC-ECD.

In series [7] the test system is norepinephrine (NE) levels. The experiment in a line: norepinephrine (NE) levels in hippocampus and hypothalamus (HPLC-ECD). It is filed as in vivo, mice. Conditions: 1 mg/kg i.p. The protocol: as §3, §4
The nature of series [8]: neurological score by the NSS method. Type of series: in vivo, Sabra mice. The following applies: 1 mg/kg i.p., day 10 (FIG. 11, Example 3). The protocol: as §2
Neurological score was evaluated by the NSS method Neurological function was assessed by a 10 point scale based on reflexes and task performance 37: Exit from a circle 1 meter in diameter in less than 1 minute, seeking, walking a straight line, startle reflex, grasping reflex, righting reflex, placing reflex, corneal reflex, maintaining balance on a beam 3, 2 and 1 cm in width, climbing onto a square and a round pole. For each task failed or abnormal reflex reaction a score of 1 was assigned. Thus, a higher score indicates poorer neurological function on day 10.

The subject of series [9] is ALT levels. The experiment in a line: ALT levels in mice. Conditions: 1 mg/kg i.p., mice sacrificed 71 days after treatment (FIG. 13, Example 3). Type of series: in vivo, Sabra mice. The protocol: as §2
Mice were sacrificed 71 days after treatment, and ALT levels were measured.

The target in series [10] is T1, PPAR-α (Homo sapiens, UniProt Q07869).
T1 sequence (Q07869 1-468): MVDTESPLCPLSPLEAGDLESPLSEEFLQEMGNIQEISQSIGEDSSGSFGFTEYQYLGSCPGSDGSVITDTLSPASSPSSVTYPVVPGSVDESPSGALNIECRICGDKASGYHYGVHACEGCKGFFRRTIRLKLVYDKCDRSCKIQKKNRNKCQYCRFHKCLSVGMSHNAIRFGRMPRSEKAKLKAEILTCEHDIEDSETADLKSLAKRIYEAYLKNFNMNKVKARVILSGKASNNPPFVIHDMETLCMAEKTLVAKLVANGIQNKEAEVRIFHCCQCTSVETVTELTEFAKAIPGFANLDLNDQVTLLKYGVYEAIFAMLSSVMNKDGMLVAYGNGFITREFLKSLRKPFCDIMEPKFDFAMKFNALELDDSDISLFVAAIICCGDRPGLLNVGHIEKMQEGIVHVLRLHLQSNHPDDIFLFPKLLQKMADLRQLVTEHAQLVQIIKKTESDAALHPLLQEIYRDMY
The following applies: reported by Giuseppe et al. 2006; read-out: EC50 for stimulating transcriptional activity of PPAR-α; cited from earlier work.

Consider `CCCCCCCC/C=C\CCCCCCCC(=O)N[C@H](CO)C(C)C` [Compound X, ((Z-Octadec)-9-enoic acid 1-hydroxymethyl-2-methyl-propyl)-amide], for which, in series [1] (1 mg/kg Intra Peritoneally, female Sabra mice (Example 1)), the “duration of the decrease in weight after administration” value was “about 15 days”. Also, the “effect on weight vs control (comparison study)” value in series [1] is “significant decrease in weight”. Further, the “continuation of the weight effect after re-administration on day 43” value in series [1] (administered again on day 43, female Sabra mice (Example 3)) was 28 days. Besides, the “continuation of the weight effect without further administration” value in series [1] (after 1 mg/kg i.p. days 8-12, female Sabra mice (Example 3)) is recorded as 31 days. In series [1] (oral gavage vs saline control, Sabra mice (FIG. 1B)), the “effect on body weight, oral gavage” value was “significantly decreasing the weight”. Moreover, in series [2] (p<0.05 (Examples 1-2 conclusion)), the “decrease in food consumption” value stood at 7%. Besides, the “effect on total food consumption in the second week (comparison study)” value in series [2] is given as “decreased food consumption significantly”. Moreover, the “effect on total food consumption in the second week” value in [2] (second week during treatment, P<0.05 (FIG. 2B, Example 1)) was “significantly decreased food consumption”. In addition, the “improvement in cognitive function (8 arm maze)” value in series [3] (1 mg/kg i.p. (Examples 1-2 conclusion)) worked out at 400%. Also, the “effect on cognitive function (8 arm maze, AUC)” value in series [3] (1 mg/kg i.p., second week, 15 minutes after injection (FIG. 3, Example 2)) is listed as “improved significantly”. Besides, the “effect on cognitive function (8 arm maze; comparison study)” value in series [3] was “improved significantly”. In addition, the “effect on activity (mean number of crossings per minute)” value in [4] (day 11, open field, p<0.001 (FIG. 4, Example 2)) is “significant increase in the activity”. Also, the “effect on activity (mean number of crossings per minute; comparison study)” value in [4] is reported as “significant increase in the activity”. In series [4] (p<0.001 (Examples 1-2 conclusion)), this compound had an increased activity of 36%. In addition, the “effect on 2-AG levels in the hypothalamus” value in series [5] was “significant decrease”. Moreover, the “effect on serotonin levels in the hypothalamus” value in [6] is listed as “increased significantly”. The “effect on NE levels in the hippocampus” value in [7] (p<0.05 (FIG. 7A)) is “significantly increased”. In series [7] (p<0.05 (FIG. 7B)), the “effect on NE levels in the hypothalamus” value was “significantly increased”. Moreover, the “effect on neurological score (NSS, 10 point scale; higher score = poorer function)” value in series [8] is given as “did not change the neurological score”. In addition, in [9], the “effect on ALT levels” value is recorded as “slightly increased ALT levels”.

Turning to `Cc1c(C(=O)NN2CCCCC2)nn(-c2ccc(Cl)cc2Cl)c1-c1ccc(Cl)cc1` [Rimonabant, reference compound], the “effect on weight vs control (comparison study)” value in series [1] is “no significant difference in weight loss”. Besides, the “effect on total food consumption in the second week (comparison study)” value in series [2] was “no significant differences”. Further, the “effect on cognitive function (8 arm maze; comparison study)” value in series [3] is “did not significantly affect cognitive function”. The “effect on activity (mean number of crossings per minute; comparison study)” value in [4] is “significantly decreased activity”. Further, the “effect on neurological score (NSS, 10 point scale; higher score = poorer function)” value in series [8] is listed as “tendency to increase it”. Further, the “effect on ALT levels” value in series [9] is reported as “raised them significantly”.

Consider `CCCCCCCC/C=C\CCCCCCCC(=O)N[C@H](C)CO` [KDS-5104, (Z)—(R)-9-octadecenamide, N-2(hydroxyethyl,1-methyl)], for which, in series [10], the EC50 is 100 nM.

Usually EC50 stands for the midpoint of the concentration-response curve.
